Test results as given in patent publication US12383534B2, “Methods for treating cancer” (REGENTS OF THE UNIVERSITY OF MINNESOTA, priority 2021, dated 2025).

How the values were obtained:
NCC-CDS-X1 cells [1] = assay: EdU incorporation (FACS) in NCC-CDS-X1 cells; format: cell-based, human
Protocol: EdU labeling and visualization was done using Click-iT® EdU Flow Cytometry Assay Kit (Thermo Fisher Scientific). Briefly, 1×10^5 NCC-CDS-X1 cells were plated in each well of a 24-well plate. The following day, continual treatment with 0.3 μM iP300w was initiated. For the pulse experiment, cells were treated with iP300w for 4 or 24 hours and analyzed 24 hours later. Cells were cultured with EdU ([…]) in the last 4 hours of the experiment, and samples were prepared for analyses according to the manufacture's instruction. FACS analyses were performed on a BD FACSAria instrument and data was analyzed using FlowJo (BD Biosciences). Experiments were performed on at least three biological replicates.

Kitra-SRS cells = assay: Immunofluorescence for Ki-67 in Kitra-SRS cells; format: cell-based, human; conditions: 24 hours, 0.3 μM
Protocol: (§1) For western blot analyses, cells were lysed with RIPA buffer supplemented with protease inhibitor cocktail (Complete, Roche), and proteins were separated on 10% SDS-PAGE gels, then transferred to PVDF membranes. Antibodies were diluted in 5% skim milk in TBST and incubated overnight at 4° C. or 1 hour at RT. An appropriate secondary HRP conjugated antibody was incubated for 1 hour at RT. Membranes were then washed with TBST, and signal was visualized using Pierce ECL western blotting substrate (Thermo Scientific). For immunofluorescence, cells cultured in 96 well plates were fixed in 4% PFA for 10 min., washed twice with PBS, permeabilized with 0.3% Triton X for 30 min, and blocked with 3% BSA for 1 hour at R/T. Primary antibodies were diluted in 3% BSA and incubated o/n at 4° C. An appropriate conjugated secondary antibody was applied for 60 min at RT. Nuclei were visualized using DAPI (1:5000, Sigma). […]

[2] = test system: CIC-DUX4 induced transcriptome in NCC-CDS-X1 cells; assay: RNA-seq transcriptional profile of NCC-CDS-X1 cells; format: cell-based, human; conditions: for number of genes changed by more than 10-fold / number of down-regulated genes (2-fold or greater) / number of up-regulated genes (2-fold or greater): 0.3 μM
Protocol: (§2) RNA was extracted using an RNA extraction kit (Zymo) and cDNA was made using 0.5 μg total RNA with oligo-dT primer and Verso cDNA Synthesis Kit (Thermo Scientific) following the manufacturer's instructions. qPCRs were performed by using Premix Ex Taq (Probe qPCR, Takara) or SYBR-green. Gene expression levels were normalized to that of GAPDH and analyzed with 7500 System Software using the ACT method (Applied Biosystems). RNA-seq library preparation was done with 500 ng total RNA from NCC-CDS-X1 cells treated for 4 or 24 hours with iP300w (0.3 μM) using the Swift Rapid RNA Library Kit (SwiftBioscience). 36 base paired-end sequencing was performed on an Illumina NextSeq instrument at the University of Minnesota Genomics Center.
Paired-end Illumina sequencing reads were trimmed with TrimGalore (0.6.0) and transcript abundance was quantified using the human Gencode annotations (v34) using Salmon (v 1.2.1) with the GC-bias correction option. Counts were imported into R (v 4.0.2) using tximeta (v 1.6.3). Differentially expressed genes were identified with DESeq2 (v 1.28.1) and figures were made with the ComplexHeatmap (v 2.4.3), clusterProfiler (v 3.16.1) and ggplot2 (v 3.3.2) R packages. Sequencing reads and processed data have been deposited into GEO under the accession number GSE165729.
Next, global transcriptional profiles of NCC-CDS-X1 cells treated with iP300w were investigated. […] Among these differentially expressed genes, 170 and 244 were changed by more than 10-fold at 4 hour and 24 hours, respectively (FIG. 3A).

[3] = test system: ETV1, 4, and 5 in 3T3-CIC-DUX4, C2C12-CIC-DUX4 and LHCN-CIC-DUX4 cell lines; assay: RT-qPCR for CIC-DUX4 target genes in cell lines overexpressing CIC-DUX4; format: cell-based, mouse and human; conditions: each CIC-DUX4 overexpressing cell line, 18 hours
Protocol: Viral supernatants were produced in 293T cells. For transducing mouse cells (3T3 and C2C12), the CIC-DUX4 expression vector was packed with pCL-Eco, and for infecting human cells (293T, LHCN-M2) with psPAX2 and pMD2.G using FUGENE 6 (Roche). Viral supernatant was collected at 48 hours and 72 hours post-transfection and applied to the cells. Two days post-infection GFP positive cells were sorted using a BD FACSAria II. Established cell lines were tested for CIC-DUX4 expression by immunofluorescence and RT-qPCR.
as §2, with “Center. […]” for “Center.”

NCC-CDS-X1 cells [4] = assay: Immunofluorescence for Ki-67 in NCC-CDS-X1 cells; format: cell-based, human; conditions: NCC-CDS-X1, 24 hours, 0.3 μM
Protocol: as §1

NCC-CDS-X1 spheres = assay: Spheroid assay; format: cell-based, human; conditions: day 4 and 8
Protocol: For spheroid formation assays, 2.5×10^4 NCC-CDS-X1 cells were seeded into 96-well plates (96-well Clear Flat Bottom Ultra-Low Attachment Microplate; Corning, Inc., Corning, NY, USA) in MEM/10% FBS media. Treatment with iP300w was started two days after the plating when the cells formed compact spheres.

CNC(=O)Cn1cc(-c2ccc3c(c2)[C@H](F)C[C@]32NC(=O)N(CC(=O)N(Cc3ccc(F)cc3)[C@@H](C)C(F)(F)F)C2=O)cn1 (single isomer, unassigned) [iP300w]
proliferation rate after 4-hour pulse (NCC-CDS-X1 cells [1]; 0.3 μM 4-hour pulse, measured 20 hours later): significantly reduced proliferation rate | cell cycle recovery after 24-hour pulse (NCC-CDS-X1 cells [1]; 0.3 μM treated for 24 hours, 48 hours after the pulse): not able to restore the cell cycle | EdU labeling of proliferating cells (NCC-CDS-X1 cells [1]; continual treatment 0.3 μM, 48 hours): virtually no cells were labelled | Ki-67 positive staining (Kitra-SRS cells): almost complete absence of Ki-67 positive staining | number of genes changed by more than 10-fold ([2]; 4 hour): 170 genes | number of down-regulated genes (2-fold or greater) ([2]; 4 hours post-treatment): 1182 genes | number of up-regulated genes (2-fold or greater) ([2]; 4 hours post-treatment): 872 genes | number of genes changed by more than 10-fold ([2]; 24 hours): 244 genes | number of down-regulated genes (2-fold or greater) ([2]; 24 hours post-treatment): 2042 genes | number of up-regulated genes (2-fold or greater) ([2]; 24 hours post-treatment): 1658 genes | effect on p21 (CDKN1A) expression ([2]; 24 hours): upregulated in the 24 hours | effect on key transformation-regulatory genes ETV1, ETV4 and CCNE1 ([2]; set of 165 CIC-DUX4 targets, 4 hours): significantly downregulated within 4 hours | effect on CIC-DUX4 targets ([2]; set of 165 CIC-DUX4 targets, 24 hours): vast majority of CIC-DUX4 targets to be downregulated | effect on CIC-DUX4-induced ETV1, 4, and 5 [3]: reversible | Ki-67 positive staining (NCC-CDS-X1 cells [4]): almost complete absence of Ki-67 positive staining | effect on CDS cell sphere formation and growth (NCC-CDS-X1 spheres): dose and time inhibitory effect
